Reference: ChEMBL document CHEMBL1148075, “Hamacanthins A and B, new antifungal bis indole alkaloids from the deep-water marine sponge, Hamacantha sp” (1994)
In brackets after ≈: the same amount, converted by molar mass.

What was measured:
Format in all cases: functional
[1] = tested on: Bacillus subtilis; assay: Antimicrobial activity against Bacillus subtilis ATCC 6633 after 24 hrs by broth microdilution method; details: ATCC 6633, 24 h
[2] = tested on: Candida albicans; assay: Antifungal activity against Candida albicans ATCC 44506 after 24 hrs by broth microdilution method; details: ATCC 44506, 24 h
[3] = tested on: Cryptococcus neoformans; assay: Antifungal activity against Cryptococcus neoformans ATCC 32045 after 48 hrs by broth microdilution method; details: ATCC 32045, 48 h

Row | MIC [1] [µg/mL] | MIC [2] [µg/mL] | MIC [3] [µg/mL] | Structure (SMILES)
1 | 3.1 (≈ 6.38 µM) | 1.6 (≈ 3.29 µM) | 3.1 (≈ 6.38 µM) | O=C1N[C@@H](c2c[nH]c3cc(Br)ccc23)CN=C1c1c[nH]c2cc(Br)ccc12 [HAMACANTHIN A]
2 | 1.6 (≈ 3.29 µM) | 6.2 (≈ 12.8 µM) | 6.2 (≈ 12.8 µM) | O=C1NC[C@H](c2c[nH]c3cc(Br)ccc23)N=C1c1c[nH]c2cc(Br)ccc12 [HAMACANTHIN B]
